Literature values in PubChem BioAssay AID1259409 (Chemical Carcinogenesis Research Information System (CCRIS), 2018).

Test system: rodent chemically induced tumor inhibition, incidence and multiplicity
Test: CCRIS tumor inhibitor studies

C#Cc1ccc2ccccc2c1
tumour outcome (control, treated, inhibition, significance) (Carcinogen: 4-(METHYLNITROSAMINO)-1-(3-PYRIDYL)-1-BUTANONE, 64091-91-4, Dose [Inhibitor]: 0, 5 UMOL IN 0.1 ML CORN OIL ONCE 2 HR PRIOR TO CARCINOGEN DOSE (STUDY DURATION: 16 WK), Route [Inhibitor]: GAVAGE, Species: MOUSE, Strain/Sex: STRAIN-A/FEMALE, Target Tissue: Type of Lesion: LUNG: ADENOMA, Dose [Carcinogen]: 10 UMOL IN 0.1 ML SALINE ONCE, Promoter: NONE USED): 100%, 89%, 11%, not significant | tumour outcome (control, treated, inhibition, significance) (Carcinogen: 7,12-DIMETHYLBENZ[A]ANTHRACENE, 57-97-6, Dose [Inhibitor]: 0, 3300 NMOL IN 0.2 ML ACETONE APPLIED TO BACK ONCE 5 MIN PRIOR TO CARCINOGEN DOSE (STUDY DURATION: 26 WK), Route [Inhibitor]: DERMAL, Species: MOUSE, Strain/Sex: SENCAR/FEMALE, Target Tissue: Type of Lesion: SKIN: PAPILLOMA, Dose [Carcinogen]: 10 NMOL IN 0.2 ML ACETONE APPLIED TO BACK ONCE): 100%, 96%, 4%, not calculated | outcome (Carcinogen: 7,12-DIMETHYLBENZ[A]ANTHRACENE, 57-97-6, Dose [Inhibitor]: 0, 33000 NMOL IN 0.2 ML ACETONE APPLIED TO BACK ONCE 5 MIN PRIOR TO CARCINOGEN D (STUDY DURATION: 26 WK), Route [Inhibitor]: DERMAL, Species: MOUSE, Strain/Sex: SENCAR/FEMALE, Target Tissue: Type of Lesion: SKIN: PAPILLOMA, Dose [Carcinogen]: 10 NMOL IN 0.2 ML ACETONE APPLIED TO BACK ONCE.): 100%, 100%, 0, not calculated | tumour outcome (control, treated, inhibition, significance) (Carcinogen: 7,12-DIMETHYLBENZ[A]ANTHRACENE, 57-97-6, Dose [Inhibitor]: 0, 66000 NMOL IN 0.2 ML ACETONE APPLIED TO BACK ONCE 5 MIN PRIOR TO CARCINOGEN DOSE (STUDY DURATION: 20 WK), Route [Inhibitor]: DERMAL, Species: MOUSE, Strain/Sex: SENCAR/FEMALE, Target Tissue: Type of Lesion: SKIN: PAPILLOMA, Dose [Carcinogen]: 10 NMOL IN 0.2 ML ACETONE APPLIED TO BACK ONCE.): 100%, 100%, 0%, not calculated | outcome (Carcinogen: 7,12-DIMETHYLBENZ[A]ANTHRACENE, 57-97-6, Dose [Inhibitor]: 0, 66000 NMOL IN 0.2 ML ACETONE APPLIED TO BACK ONCE 5 MIN PRIOR TO CARCINOGEN DOSE (STUDY DURATION: 26 WK), Route [Inhibitor]: DERMAL, Species: MOUSE, Strain/Sex: SENCAR/FEMALE, Target Tissue: Type of Lesion: SKIN: PAPILLOMA, Dose [Carcinogen]: 10 NMOL IN 0.2 ML ACETONE APPLIED TO BACK ONCE.): 100%, 100%, 0, not calculated | tumour outcome (control, treated, inhibition, significance) (Carcinogen: 7,12-DIMETHYLBENZ[A]ANTHRACENE, 57-97-6, Dose [Inhibitor]: 0, 132000 NMOL IN 0.2 ML ACETONE APPLIED TO BACK ONCE 5 MIN PRIOR TO CARCINOGEN DOSE (STUDY DURATION: 20 WK), Route [Inhibitor]: DERMAL, Species: MOUSE, Strain/Sex: SENCAR/FEMALE, Target Tissue: Type of Lesion: SKIN: PAPILLOMA, Dose [Carcinogen]: 10 NMOL IN 0.2 ML ACETONE APPLIED TO BACK ONCE.): 100%, 89%, 11%, not calculated | tumour outcome (control, treated, inhibition, significance) (Carcinogen: BENZO[A]PYRENE, 50-32-8, Dose [Inhibitor]: 3300 NMOL IN 0.2 ML ACETONE APPLIED TO BACK ONCE 5 MIN PRIOR TO CARCINOGEN DOSE (STUDY DURATION: 26 WK), Route [Inhibitor]: DERMAL, Species: MOUSE, Strain/Sex: SENCAR/FEMALE, Target Tissue: Type of Lesion: SKIN: PAPILLOMA, Dose [Carcinogen]: 200 NMOL IN 0.2 ML ACETONE APPLIED TO BACK ONCE.): 100%, 95%, 5%, not calculated | tumour outcome (control, treated, inhibition, significance) (Carcinogen: BENZO[A]PYRENE, 50-32-8, Dose [Inhibitor]: 33000 NMOL IN 0.2 ML ACETONE APPLIED TO BACK ONCE 5 MIN PRIOR TO CARCINOGEN DOSE (STUDY DURATION: 26 WK), Route [Inhibitor]: DERMAL, Species: MOUSE, Strain/Sex: SENCAR/FEMALE, Target Tissue: Type of Lesion: SKIN: PAPILLOMA, Dose [Carcinogen]: 200 NMOL IN 0.2 ML ACETONE APPLIED TO BACK ONCE.): 100%, 89%, 11%, not calculated | tumour outcome (control, treated, inhibition, significance) (Carcinogen: BENZO[A]PYRENE, 50-32-8, Dose [Inhibitor]: 66000 NMOL IN 0.2 ML ACETONE APPLIED TO BACK ONCE 5 MIN PRIOR TO CARCINOGEN DOSE (STUDY DURATION: 20 WK), Route [Inhibitor]: DERMAL, Species: MOUSE, Strain/Sex: SENCAR/FEMALE, Target Tissue: Type of Lesion: SKIN: PAPILLOMA, Dose [Carcinogen]: 200 NMOL IN 0.2 ML ACETONE APPLIED TO BACK ONCE.): 75%, 74%, 1%, not calculated | tumour outcome (control, treated, inhibition, significance) (Carcinogen: N-METHYL-N'-NITRO-N-NITROSOGUANIDINE, 70-25-7, Dose [Inhibitor]: 0, 33000 NMOL IN 0.2 ML ACETONE APPLIED TO BACK ONCE 5 MIN PRIOR TO CARCINOGEN DOSE (STUDY DURATION: 20 WK), Route [Inhibitor]: DERMAL, Species: MOUSE, Strain/Sex: SENCAR/FEMALE, Target Tissue: Type of Lesion: SKIN: PAPILLOMA, Dose [Carcinogen]: 2500 NMOL IN 0.2 ML ACETONE APPLIED TO BACK ONCE.): 78%, 85%, -9%, not calculated

CCCCCC(O)CC(=O)CCC1CCC(O)C(OC)C1 (stereo unspecified)
tumour outcome (control, treated, inhibition, significance) (Carcinogen: AZOXYMETHANE, 25843-45-2, Dose [Inhibitor]: 0, 0.02% IN DIET IN WK 1-3 OF STUDY FOLLOWED BY BASAL DIET FOR DURATION OF STUDY (STUDY DURATION: 1 YR), Route [Inhibitor]: ORAL, Species: RAT, Strain/Sex: F344/MALE, Target Tissue: Type of Lesion: LARGE INTESTINE: ADENOCARCINOMA, Dose [Carcinogen]: 15 MG/KG BW 1/WK IN WK 1 AND 2 OF STUDY, Promoter: NONE USED): 13/27 (48%), 3/17 (18%), 63%, not calculated | tumour outcome (control, treated, inhibition, significance) (Carcinogen: AZOXYMETHANE, 25843-45-2, Dose [Inhibitor]: 0, 0.02% IN DIET IN WK 1-3 OF STUDY FOLLOWED BY BASAL DIET FOR DURATION OF STUDY (STUDY DURATION: 1 YR), Route [Inhibitor]: ORAL, Species: RAT, Strain/Sex: F344/MALE, Target Tissue: Type of Lesion: LARGE INTESTINE: ADENOMA, Dose [Carcinogen]: 15 MG/KG BW 1/WK IN WK 1 AND 2 OF STUDY, Promoter: NONE USED): 6/27 (22%), 5/17 (29%), -32%, not calculated | tumour outcome (control, treated, inhibition, significance) (Carcinogen: AZOXYMETHANE, 25843-45-2, Dose [Inhibitor]: 0, 0.02% IN DIET IN WK 1-3 OF STUDY FOLLOWED BY BASAL DIET FOR DURATION OF STUDY (STUDY DURATION: 1 YR), Route [Inhibitor]: ORAL, Species: RAT, Strain/Sex: F344/MALE, Target Tissue: Type of Lesion: SMALL INTESTINE: ADENOCARCINOMA, Dose [Carcinogen]: 15 MG/KG BW 1/WK IN WK 1 AND 2 OF STUDY, Promoter: NONE USED): 6/27 (22%), 0/17 (0%), 100%, not calculated

O=C1CCN(c2ccccc2)N1
tumour outcome (control, treated, inhibition, significance) (Carcinogen: 7,12-DIMETHYLBENZ[A]ANTHRACENE, 57-97-6, Dose [Inhibitor]: 30 UMOL APPLIED 30-40 MIN BEFORE EACH TPA TREATMENT AND CONCURRENTLY WITH TPA (STUDY DURATION: 18 WK), Route [Inhibitor]: DERMAL, Species: MOUSE, Strain/Sex: CD-1/FEMALE, Target Tissue: Type of Lesion: SKIN: PAPILLOMA, Dose [Carcinogen]: 200 NMOL ONCE, Promoter: 12-O-TETRADECANOYLPHORBOL-13-ACETATE, 16561-29-8): 96%, 100%, -4%, not calculated

C=C(CC[C@@H](C(=O)O)[C@H]1[C@H](O)C[C@@]2(C)C3=C(CC[C@]12C)[C@@]1(C)CC[C@H](OC(C)=O)C(C)(C)[C@@H]1CC3)C(C)C
tumour outcome (control, treated, inhibition, significance) (Carcinogen: 7,12-DIMETHYLBENZ[A]ANTHRACENE, 57-97-6, Dose [Inhibitor]: 0, 0.2 UMOL 2/WK FOR 19 WK BEGINNING 1 WK POST CARCINOGEN DOSE (STUDY DURATION: 20 WK), Route [Inhibitor]: DERMAL, Species: MOUSE, Strain/Sex: ICR, Target Tissue: Type of Lesion: SKIN: PAPILLOMA, Dose [Carcinogen]: 50 UG ONCE, Promoter: 12-O-TETRADECANOYLPHORBOL-13-ACETATE, 16561-29-8): 73%, 25%, 66%, not calculated | tumour outcome (control, treated, inhibition, significance) (Carcinogen: 7,12-DIMETHYLBENZ[A]ANTHRACENE, 57-97-6, Dose [Inhibitor]: 0, 0.2 UMOL IN 100 µL ACETONE:DMSO (9:1) 2/WK FOR 20 WK APPLIED 30 MIN PRIOR TO EACH CARCINOGEN DOSE (STUDY DURATION: 20, Route [Inhibitor]: DERMAL, Species: MOUSE, Strain/Sex: ICR/FEMALE, Target Tissue: Type of Lesion: SKIN: PAPILLOMA, Dose [Carcinogen]: 50 UG IN 100 µL ACETONE ONCE, Promoter: 12-O-TETRADECANOYLPHORBOL-13-ACETATE, 16561-29-8): 73%, 27%, 63%, p<0.01
